Data on 25 compounds can be found in patent publication US12365655B2, “Compounds” (CTXT PTY LTD, priority 2018, dated 2025).

One assay deals with TIP60-KAT5 (Homo sapiens, UniProt Q92993). The assay is described as follows: Acetyltransferase biochemical assay (AlphaScreen), KAT5.
The next assay has as its target HBO-KAT7 (Homo sapiens, UniProt O95251). The assay is described as follows: Acetyltransferase biochemical assay (AlphaScreen), KAT7.
The target in another assay is MOZ-KAT6A (Homo sapiens, UniProt Q92794, A567V). The assay is described as follows: Acetyltransferase biochemical assay (AlphaScreen), KAT6A. In general terms: Alpha assays give light when donor and acceptor beads are brought close together.

A word on the IC50: it is the point on the concentration scale where inhibition reaches its midpoint. A high value points to weaker potency.

Molecules are shown by their SMILES. Some results are limits rather than exact numbers.

Sequence of TIP60-KAT5 (Q92993 with tags, fused parts or gaps isoform Q92993-2): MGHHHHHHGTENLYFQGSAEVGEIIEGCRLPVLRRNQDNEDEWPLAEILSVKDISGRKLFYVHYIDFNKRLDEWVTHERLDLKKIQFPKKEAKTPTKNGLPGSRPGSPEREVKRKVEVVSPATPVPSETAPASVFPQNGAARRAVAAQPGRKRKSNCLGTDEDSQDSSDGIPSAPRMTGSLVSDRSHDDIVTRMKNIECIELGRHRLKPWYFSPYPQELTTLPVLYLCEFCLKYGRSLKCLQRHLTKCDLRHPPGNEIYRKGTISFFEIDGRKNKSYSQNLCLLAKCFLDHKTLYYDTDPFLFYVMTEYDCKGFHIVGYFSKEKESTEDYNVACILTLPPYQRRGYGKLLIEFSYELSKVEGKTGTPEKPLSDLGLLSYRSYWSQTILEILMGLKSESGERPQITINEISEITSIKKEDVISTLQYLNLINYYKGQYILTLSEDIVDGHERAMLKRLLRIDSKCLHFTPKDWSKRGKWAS
Sequence of HBO-KAT7 (O95251 with tags, fused parts or gaps): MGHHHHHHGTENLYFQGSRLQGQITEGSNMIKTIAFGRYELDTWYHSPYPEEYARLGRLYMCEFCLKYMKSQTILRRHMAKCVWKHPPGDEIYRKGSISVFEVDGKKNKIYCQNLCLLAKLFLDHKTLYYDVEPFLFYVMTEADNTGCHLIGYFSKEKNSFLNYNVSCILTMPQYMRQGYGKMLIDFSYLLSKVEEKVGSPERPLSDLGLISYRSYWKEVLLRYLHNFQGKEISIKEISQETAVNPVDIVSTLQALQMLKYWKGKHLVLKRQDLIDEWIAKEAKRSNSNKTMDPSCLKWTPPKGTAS
Sequence of MOZ-KAT6A (Q92794 with tags, fused parts or gaps A567V): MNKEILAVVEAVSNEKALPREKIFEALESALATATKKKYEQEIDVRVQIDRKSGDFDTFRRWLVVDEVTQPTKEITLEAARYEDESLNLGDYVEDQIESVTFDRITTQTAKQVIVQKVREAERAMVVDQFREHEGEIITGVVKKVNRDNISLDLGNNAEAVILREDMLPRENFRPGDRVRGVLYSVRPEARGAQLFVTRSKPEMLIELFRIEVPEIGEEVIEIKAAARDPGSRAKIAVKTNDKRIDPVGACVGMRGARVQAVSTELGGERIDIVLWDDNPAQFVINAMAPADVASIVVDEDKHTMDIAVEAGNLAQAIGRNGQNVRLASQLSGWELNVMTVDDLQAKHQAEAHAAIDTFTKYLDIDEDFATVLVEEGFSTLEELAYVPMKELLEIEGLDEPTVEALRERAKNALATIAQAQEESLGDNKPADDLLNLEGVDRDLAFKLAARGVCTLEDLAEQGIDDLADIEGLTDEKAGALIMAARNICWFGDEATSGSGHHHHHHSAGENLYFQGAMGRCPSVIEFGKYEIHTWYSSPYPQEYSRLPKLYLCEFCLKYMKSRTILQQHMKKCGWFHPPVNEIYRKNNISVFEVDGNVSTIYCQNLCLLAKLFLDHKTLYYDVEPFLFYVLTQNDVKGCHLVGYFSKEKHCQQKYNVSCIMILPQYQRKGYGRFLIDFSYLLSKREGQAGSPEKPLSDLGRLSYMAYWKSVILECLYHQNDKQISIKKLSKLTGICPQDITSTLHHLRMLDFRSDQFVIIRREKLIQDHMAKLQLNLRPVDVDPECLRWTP

In the case of `CCc1ccc(OC)c(S(=O)(=O)Nc2noc3ccc(-c4cncnc4)cc23)c1` [Example 238, 5-Ethyl-2-methoxy-N-(5-(pyrimidin-5-yl)benzo[d]isoxazol-3-yl)benzenesulfonamide], the IC50 on TIP60-KAT5 is over 125 µM; against HBO-KAT7, 94.2 µM; against MOZ-KAT6A, 12 µM.
The like results for `COc1ccc(C(C)(C)C)cc1S(=O)(=O)Nc1noc2ccccc12` [Example 48, N-(benzo[d]isoxazol-3-yl)-5-(tert-butyl)-2-methoxy benzene sulfonamide] were, in that order, 92.9 µM, 54.8 µM and 7.41 µM.
For the compound `COc1cc(C)c(C)cc1S(=O)(=O)Nc1noc2cccc(Cl)c12` [Example 33, N-(4-chlorobenzo [d]isoxazol-3-yl)-2-methoxy-4,5-dimethylbenzenesulfonamide], the IC50 came to 90.5 µM on TIP60-KAT5, 11.4 µM against HBO-KAT7 and 6.85 µM against MOZ-KAT6A.
In the case of `COc1cc(-c2ccccc2)ccc1S(=O)(=O)Nc1noc2ccccc12` [Example 183, N-(Benzo[d]isoxazol-3-yl)-3-methoxy-[1,1-biphenyl]-4-sulfonamide], the IC50 against TIP60-KAT5 is 33.2 µM; at HBO-KAT7 it was 4.48 µM; on MOZ-KAT6A, 5.6 µM.
Take `COc1cccc(OC)c1S(=O)(=O)Nc1noc2cc(C)cc(OC)c12` [Example 244, 2,6-Dimethoxy-N-(4-methoxy-6-methylbenzo[d]isoxazol-3-yl)benzenesulfonamide]: the IC50 on TIP60-KAT5 is 30.2 µM; against HBO-KAT7, 1.11 µM; against MOZ-KAT6A, 2.13 µM.
`CCc1ccc(OC)c(S(=O)(=O)Nc2noc3ccc(C(=O)NC)cc23)c1` [Example 230, 3-((5-Ethyl-2-methoxyphenyl)sulfonamido)-N-methylbenzo[d]isoxazole-5-carboxamide]: the IC50 against TIP60-KAT5 was over 125 µM; against HBO-KAT7, 109 µM; against MOZ-KAT6A it was 48.1 µM.
The like results for `CCc1ccc(OC)c(S(=O)(=O)Nc2noc3cc(-c4ccccn4)ccc23)c1` [Example 140, 5-Ethyl-2-methoxy-N-(6-(pyridin-2-yl)benzo[d]isoxazol-3-yl)benzenesulfonamide] were, in that order, 47.8 µM, 9.9 µM and 2.26 µM.
As to `CCc1ccc(OC)c(S(=O)(=O)Nc2noc3ccc(C#N)cc23)c1` [Example 233], the IC50 on TIP60-KAT5 is over 125 µM; at HBO-KAT7 it was 17.9 µM; against MOZ-KAT6A, 9.95 µM.
For `CCc1ccc(OC)c(S(=O)(=O)Nc2noc3ccc(C(=O)N(C)C)cc23)c1` [Example 231, 3-((5-Ethyl-2-methoxyphenyl)sulfonamido)-N,N-dimethylbenzo[d]isoxazole-5-carboxamide] the same measures were over 125 µM, over 125 µM and 59 µM.
The like results for `Cc1cnc2c(S(=O)(=O)Nc3noc4cccc(Cl)c34)cccc2c1` [Example 118, N-(4-Chlorobenzo[d]isoxazol-3-yl)-3-methylquinoline-8-sulfonamide] were, in that order, 37.1 µM, 0.852 µM and 10 µM.
For `CC(C)Oc1ccc(S(=O)(=O)Nc2noc3cccc(Cl)c23)cc1` [Example 24, N-(4-chlorobenzo [d]isoxazol-3-yl)-4-isopropoxybenzene sulfonamide] the same measures were over 125 µM, 33.9 µM and over 125 µM.
On to `CCc1ccc(OC)c(S(=O)(=O)Nc2noc3c(CC)cccc23)c1` [Example 188], for which the IC50 against TIP60-KAT5 stood at 69.9 µM; on HBO-KAT7 it was 40.1 µM; at MOZ-KAT6A, 9.23 µM.
With `CCc1ccc(OC)c(S(=O)(=O)Nc2noc3c(CO)cccc23)c1` [Example 186], the IC50 at TIP60-KAT5 came to 84.7 µM; against HBO-KAT7, 47.1 µM; against MOZ-KAT6A, 25.2 µM.
For `CCc1ccc(OC)c(S(=O)(=O)Nc2noc3c(-c4ncccn4)cccc23)c1` [Example 136, 5-Ethyl-2-methoxy-N-(7-(pyrimidin-2-yl)benzo[d]isoxazol-3-yl)benzenesulfonamide] the same measures were over 125 µM, 28.3 µM and 34.3 µM.
As to `COc1cccc2onc(NS(=O)(=O)c3cc(C)cc4cccnc34)c12` [Example 78, N-(4-methoxybenzo[d]isoxazol-3-yl)-6-methyl quinoline-8-sulfonamide], the IC50 is over 125 µM at TIP60-KAT5, over 125 µM against HBO-KAT7 and 93.8 µM on MOZ-KAT6A.
Take `O=S(=O)(Nc1noc2ccccc12)c1ccc(C2CCCCC2)cc1` [Example 71, N-(benzo[d]isoxazol-3-yl)-4-cyclohexyl benzene-sulfonamide]: the figures for the IC50 at TIP60-KAT5, on HBO-KAT7 and against MOZ-KAT6A were 28.4 µM, 21.6 µM and 11.6 µM, respectively.
For `COc1cccc(OC)c1S(=O)(=O)Nc1noc2c(-c3ccccc3)ccc(OC)c12` [Example 142, 2,6-Dimethoxy-N-(4-methoxy-7-phenylbenzo[d]isoxazol-3-yl)benzenesulfonamide] the same measures were 32.2 µM, 1.16 µM and 3.3 µM.
For `COc1cc(C)c(Cl)cc1S(=O)(=O)Nc1noc2ccccc12` [Example 51, N-(benzo[d]isoxazol-3-yl)-5-chloro-2-methoxy-4-methylbenzene sulfonamide] the same measures were 87.7 µM, 28.3 µM and 15 µM.
Turning to `COc1ccccc1S(=O)(=O)Nc1noc2cc(Cl)ccc12` [Example 158], the IC50 against TIP60-KAT5 was over 125 µM; against HBO-KAT7, 44.9 µM; against MOZ-KAT6A, 62.6 µM.
For the compound `CCc1ccc(OC)c(S(=O)(=O)Nc2noc3c(C)cccc23)c1` [Example 187, 5-Ethyl-2-methoxy-N-(7-methylbenzo[d]isoxazol-3-yl)benzenesulfonamide], the IC50 amounted to 65.3 µM against TIP60-KAT5, 22 µM against HBO-KAT7 and 5.66 µM against MOZ-KAT6A.
For `COc1cccc(OC)c1S(=O)(=O)Nc1noc2cc(-c3ccncc3)cc(OC)c12` [Example 245, 2,6-Dimethoxy-N-(4-methoxy-6-(pyridin-4-yl)benzo[d]isoxazol-3-yl)benzenesulfonamide] the same measures were 57.6 µM, 2.76 µM and 3.9 µM.
As for `COCc1ccccc1S(=O)(=O)Nc1noc2cccc(Cl)c12` [Example 1, N-(4-chlorobenzo [d]isoxazol-3-yl)-2-(methoxymethyl) benzenesulfonamide], the values for the IC50 against TIP60-KAT5, against HBO-KAT7 and on MOZ-KAT6A were over 125 µM, 53.9 µM and 91.4 µM, respectively.
Take `O=S(=O)(Nc1noc2cccc(Cl)c12)c1cccc2cccnc12` [Example 123, N-(4-chlorobenzo[d]isoxazol-3-yl)quinoline-8-sulfonamide]: the IC50 against TIP60-KAT5 came to 59.4 µM; against HBO-KAT7, 4.2 µM; on MOZ-KAT6A, 26.9 µM.
Consider `CCc1ccc(OC)c(S(=O)(=O)Nc2noc3c(-c4cncnc4)cccc23)c1` [Example 192, 5-Ethyl-2-methoxy-N-(7-(pyrimidin-5-yl)benzo[d]isoxazol-3-yl)benzenesulfonamide], for which the IC50 came out at 29.9 µM against TIP60-KAT5, 24.2 µM on HBO-KAT7 and 9.39 µM against MOZ-KAT6A.
With `O=S(=O)(Nc1noc2ccccc12)c1ccc2ccccc2c1` [Example 66, N-(benzo[d]isoxazol-3-yl)naphthalene-2-sulfonamide], the values for the IC50 against TIP60-KAT5, against HBO-KAT7 and at MOZ-KAT6A were 123 µM, 114 µM and 14.6 µM, respectively.
